Patent publication US6448405B1, “Steroid receptor modulator compounds and methods” (Ligand Pharmaceuticals Incorporated, priority 1994, dated 2002)
Like-named read-outs stand apart in the source and are kept apart here.

Legend:
[1] = biological target: T1, human glucocorticoid receptor (GR) (Homo sapiens, UniProt P04150); test: Co-transfection assay, GR antagonist activity, CV-1 cells (pRShGR); format: cell-based; conditions: antagonist mode; for GR Antagonist CV-1 Cells Efficacy (%): % maximal inhibition; for IC50: read-out: GR Antagonist CV-1 Cells Potency
T1 construct: expressed in transfected cells; host or cells: CV-1 cells, transient transfection
T1 sequence (P04150 1-777): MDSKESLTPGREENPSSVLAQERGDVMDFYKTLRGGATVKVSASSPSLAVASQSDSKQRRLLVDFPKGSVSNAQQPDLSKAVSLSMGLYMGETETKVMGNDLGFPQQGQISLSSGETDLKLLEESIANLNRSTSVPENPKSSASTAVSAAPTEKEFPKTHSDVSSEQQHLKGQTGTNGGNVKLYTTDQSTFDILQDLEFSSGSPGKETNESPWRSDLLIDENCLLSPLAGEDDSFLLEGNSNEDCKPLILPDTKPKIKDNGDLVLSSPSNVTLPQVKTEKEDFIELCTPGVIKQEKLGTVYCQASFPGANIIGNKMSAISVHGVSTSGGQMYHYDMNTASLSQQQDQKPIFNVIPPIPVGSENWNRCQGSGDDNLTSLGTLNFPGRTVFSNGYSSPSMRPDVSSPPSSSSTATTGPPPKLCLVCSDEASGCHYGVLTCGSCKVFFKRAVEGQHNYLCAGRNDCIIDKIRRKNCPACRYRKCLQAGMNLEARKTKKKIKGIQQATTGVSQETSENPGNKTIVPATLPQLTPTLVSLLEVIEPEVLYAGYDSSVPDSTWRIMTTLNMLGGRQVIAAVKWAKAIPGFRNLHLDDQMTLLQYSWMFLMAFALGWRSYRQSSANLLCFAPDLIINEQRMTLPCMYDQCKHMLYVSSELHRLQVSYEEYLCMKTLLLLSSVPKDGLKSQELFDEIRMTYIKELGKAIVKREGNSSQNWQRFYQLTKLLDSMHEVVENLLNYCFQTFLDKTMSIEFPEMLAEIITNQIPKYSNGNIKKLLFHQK

[2] = biological target: T2, human glucocorticoid receptor alpha (GRα) (Homo sapiens, UniProt P04150); test: GR binding assay, baculovirus extract, [3H] dexamethasone; conditions: competition with [3H] dexamethasone, 4° C., 16 hours; read-out: GR Binding K1
T2 construct: made in house; crude extract used
T2 sequence (P04150 1-777): T1 sequence (P04150 1-777)

[3] = biological target: T3, human mineralocorticoid receptor (MR) (Homo sapiens, UniProt P08235); test: Co-transfection assay, MR antagonist activity, CV-1 cells (pRShMR); format: cell-based; conditions: antagonist mode; for MR Antagonist CV-1 Cells Efficacy (%): % maximal inhibition; for IC50: read-out: MR Antagonist CV-1 Cells Potency
T3 construct: expressed in transfected cells; host or cells: CV-1 cells, transient transfection
T3 sequence (P08235 1-984): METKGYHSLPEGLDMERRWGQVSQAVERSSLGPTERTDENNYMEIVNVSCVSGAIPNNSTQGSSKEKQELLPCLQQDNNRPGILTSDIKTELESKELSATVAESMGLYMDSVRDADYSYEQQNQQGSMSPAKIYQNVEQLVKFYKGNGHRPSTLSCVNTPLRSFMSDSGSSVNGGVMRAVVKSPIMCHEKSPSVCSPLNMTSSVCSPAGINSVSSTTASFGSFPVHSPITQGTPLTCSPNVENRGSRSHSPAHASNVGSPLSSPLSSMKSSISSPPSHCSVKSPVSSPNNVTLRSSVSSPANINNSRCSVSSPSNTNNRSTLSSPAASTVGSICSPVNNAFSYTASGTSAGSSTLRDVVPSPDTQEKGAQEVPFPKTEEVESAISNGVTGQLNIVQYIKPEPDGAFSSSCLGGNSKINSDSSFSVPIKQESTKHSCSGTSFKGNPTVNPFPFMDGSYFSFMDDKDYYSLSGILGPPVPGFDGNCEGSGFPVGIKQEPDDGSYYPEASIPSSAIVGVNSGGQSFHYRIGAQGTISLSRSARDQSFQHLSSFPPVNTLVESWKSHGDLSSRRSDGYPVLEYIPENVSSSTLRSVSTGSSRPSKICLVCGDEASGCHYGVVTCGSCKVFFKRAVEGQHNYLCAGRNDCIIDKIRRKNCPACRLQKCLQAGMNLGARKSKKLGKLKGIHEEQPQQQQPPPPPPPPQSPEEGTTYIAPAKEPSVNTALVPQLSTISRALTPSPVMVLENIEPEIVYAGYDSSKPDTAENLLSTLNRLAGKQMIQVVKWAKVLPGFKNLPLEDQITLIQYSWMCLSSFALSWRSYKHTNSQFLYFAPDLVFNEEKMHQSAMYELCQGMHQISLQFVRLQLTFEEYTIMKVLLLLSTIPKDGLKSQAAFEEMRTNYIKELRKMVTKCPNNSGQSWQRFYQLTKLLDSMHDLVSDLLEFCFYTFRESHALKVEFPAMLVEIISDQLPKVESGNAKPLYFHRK

[4] = test system: ventral prostates (VP) and seminal vesicles (SV) of immature castrated rats; test: Immature castrated male rat model (antiandrogen activity); format: in vivo; conditions: co-administered with 0.1 mg of TP
Procedure: Since the male sex organs are the tissues most responsive to modulation of androgen activity, this model is used to determine the androgen-dependent growth of the sex accessory organs in immature castrated rats.
Five days after surgery, animals groups were dosed for 3 days as follows:
At the end of the 3-day treatment, the animals were sacrificed, and the ventral prostates (VP) and seminal vesicles (SV) were collected and weighed. To compare data from different experiments, the sexual organ weights were first standardized as mg per 100 g of body weight, and the increase in organ weight induced by TP was considered as the maximum increase (100%). Super-anova (one factor) was used for statistical analysis.
The gain and loss of sexual organ weights reflect the changes of cell number (DNA content) and cell mass (protein content), depending upon the serum androgen concentration. […] Therefore, measurement of organ wet weights is sufficient to indicate the bioactivity of androgens and androgen antagonists.

[5] = biological target: T4, human androgen receptor (AR) (Homo sapiens, UniProt P10275); test: Co-transfection assay, AR agonist and antagonist activity, CV-1 cells (pRShAR); format: cell-based; conditions: for AR Agonist CV-1 Cells Efficacy (%): relative to DHT
T4 construct: expressed in transfected cells; host or cells: CV-1 cells, transient transfection
T4 sequence (P10275 1-920): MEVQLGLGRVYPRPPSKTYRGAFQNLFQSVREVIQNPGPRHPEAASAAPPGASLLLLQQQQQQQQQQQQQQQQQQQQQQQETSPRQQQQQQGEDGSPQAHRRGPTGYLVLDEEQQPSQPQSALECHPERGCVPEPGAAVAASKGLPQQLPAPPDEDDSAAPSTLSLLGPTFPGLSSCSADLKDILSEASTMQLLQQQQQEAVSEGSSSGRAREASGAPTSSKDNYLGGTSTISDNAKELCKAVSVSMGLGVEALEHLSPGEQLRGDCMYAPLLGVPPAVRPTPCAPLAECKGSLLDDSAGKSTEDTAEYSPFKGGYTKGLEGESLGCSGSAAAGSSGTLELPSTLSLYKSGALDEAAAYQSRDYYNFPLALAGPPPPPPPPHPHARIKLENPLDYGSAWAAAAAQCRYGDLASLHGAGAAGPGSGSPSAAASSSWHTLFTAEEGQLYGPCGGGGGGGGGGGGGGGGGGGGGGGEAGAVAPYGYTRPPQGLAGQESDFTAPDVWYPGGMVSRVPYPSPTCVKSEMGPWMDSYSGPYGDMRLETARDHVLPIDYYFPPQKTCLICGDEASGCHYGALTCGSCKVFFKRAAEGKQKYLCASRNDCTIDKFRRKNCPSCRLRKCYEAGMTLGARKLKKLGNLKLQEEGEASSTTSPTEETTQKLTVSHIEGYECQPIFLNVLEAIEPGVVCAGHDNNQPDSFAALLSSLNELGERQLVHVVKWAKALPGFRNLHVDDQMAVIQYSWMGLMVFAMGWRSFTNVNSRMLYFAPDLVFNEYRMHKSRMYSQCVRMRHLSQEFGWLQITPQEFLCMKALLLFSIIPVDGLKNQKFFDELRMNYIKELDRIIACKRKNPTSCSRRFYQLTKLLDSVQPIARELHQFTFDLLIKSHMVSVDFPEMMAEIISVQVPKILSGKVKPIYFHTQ

human AR = biological target: T5, human AR (Homo sapiens, UniProt P10275); test: AR whole cell binding assay, transfected COS-1 cells, 3H-DHT
T5 construct: expressed in transfected cells; host or cells: COS-1 cells, transient transfection
T5 sequence (P10275 1-920): T4 sequence (P10275 1-920)

Structure (SMILES)	GR Antagonist CV-1 Cells Efficacy (%) ([1]; Table 4)	IC50 ([1]; dexamethasone at its EC50)	Ki [2]	MR Antagonist CV-1 Cells Efficacy (%) ([3]; Table 4)	IC50 ([3]; aldosterone at its EC50)	further results
CC1=CC(C)(C)Nc2ccc3c(c21)C(c1ccc(C)cc1)Oc1ccccc1-3 (racemic) [Compound 167, (R/S)-1,2-Dihydro-2,2,4-trimethyl-5-(4-Methylphenyl)-5H-chromeno[3,4-f]quinoline]	96%	855 nM	21 nM	61%	2000 nM	GR Antagonist CV-1 Cells Efficacy (%) ([1]; dexamethasone at its EC50): 96%; MR Antagonist CV-1 Cells Efficacy (%) ([3]; aldosterone at its EC50): 61%
CC1=CC(C)(C)Nc2ccc3c(c21)C(c1ccsc1)Oc1ccccc1-3 (racemic) [Compound 170, (R/S)-1,2-Dihydro-2,2,4-trimethyl-5-(thiophen-3-yl)-5H-chromeno[3,4-f]quinoline]	94%	1550 nM	47 nM	84%	410 nM	–
C=C1CC(C)(C)Nc2ccc3c(c21)C(c1cccc(F)c1)Oc1ccccc1-3 (racemic) [Compound 192, (R/S)-5-(3-Fluorophenyl)-1,2,3,4-tetrahydro-2,2-dimethyl-4-methylidene-5H-chromeno[3,4-f]quinoline]	81%	280 nM	214 nM	70%	320 nM	–
CC1=CC(C)(C)Nc2ccc3c(c21)C(c1cc(F)cc(Br)c1)Oc1ccccc1-3 (racemic) [Compound 351, (R/S)-5-(3-Bromo-5-Fluorophenyl)-1,2-dihydro-2,2,4-trimethyl-5H-chromeno[3,4-f]quinoline]	–	–	–	–	–	melting point: 82 to 84 °C
CC1=CC(C)(C)Nc2c1cc1c(C(F)(F)F)cc(=O)[nH]c1c2C [Compound 255, 1,2-Dihydro-2,2,4,10-tetramethyl-6-trifluoromethyl-8-pyridono[5,6-g]quinoline]	–	–	–	–	–	AR antagonist activity: suppression of testosterone-mediated increases in the weights of VP and SV [4]: exhibited AR antagonist activity
CC1=CC(C)(C)Nc2cc3c(cc21)c(C(F)(F)F)cc(=O)n3C [Compound 261, 1,2-Dihydro-2,2,4,9-tetramethyl-6-trifluoromethyl-8-pyridono[5,6-g]quinoline]	–	–	–	–	–	AR antagonist activity: suppression of testosterone-mediated increases in the weights of VP and SV [4]: exhibited AR antagonist activity
CC1=CC(C)(C)N(C)c2cc3oc(=O)cc(C(F)(F)F)c3cc21 [Compound 265, 1,2-Dihydro-1,2,2,4-tetramethyl-6-trifluoromethyl-8-pyranono[5,6-g]quinoline]	–	–	–	–	–	EC50 [5]: > 10000 nM; IC50 [5]: 56 nM; AR Agonist CV-1 Cells Efficacy (%) ([5]; Table 2, agonist mode): na (na = not active (i.e. efficacy of <20 and potency of >10,000)); AR Antagonist CV-1 Cells Efficacy (%) ([5]; Table 2, antagonist mode, % maximal inhibition): 78%; AR Agonist CV-1 Cells Efficacy (%) ([5]; agonist mode): na (na = not active (i.e. efficacy of <20 and potency of >10,000)); EC50 ([5]; read-out: AR Agonist CV-1 Cells Potency, Table 2, agonist mode, EC50): > 10000 nM; Ki (human AR): 23 nM
